In PMC11078746 (Nature, 2024):
Values joined by “and” are separate entries in the source; they are usually repeats but may differ in a detail not shown here. Equal entries are not always repeated.

Key:
[1] = tested on: SNU407; assay: CFA 10-14 day clonogenic assay; assay type: cell-based; conditions: Homo sapiens, SNU-407
[2] = tested on: 1119-HX xenograft; assay: MSI xenograft model efficacy; assay type: in vivo, mouse; conditions: colorectal carcinoma, 60 or 120 mg/kg
Method: (§1) All animal studies were conducted in accordance with ethics and procedures covered by permit BS-2275 and BS-1975 issued by the Kantonales Veterinäramt Basel-Stadt and in strict adherence to guidelines of the Eidgenössisches Tierschutzgesetz and the Eidgenössische Tierschutzverordnung, Switzerland. All animal studies were approved by the internal ethics committee. All animals had access to food and water ad libitum and were identified with transponders. They were housed in a specific-pathogen-free facility in IVC racks under a 12 h–12 h light–dark cycle. To establish cell-line-derived xenograft models, 6–7-week-old female athymic nude (Crl:NU(NCr)-Foxn1^nu) or SCID-BEIGE (CB17.Cg-PrkdcscidLystbg-J/Crl) mice from Charles River were engrafted subcutaneously with 5 million tumour cells in HBSS (H6648, Sigma-Aldrich). For SNU-407, Lovo, IM95, RL95.2, Ishikawa and IGROV-1, the cells were concentrated in 50% Matrigel (354234, Corning). Patient-derived xenografts were induced and expanded by transplantation as previously described. […] For the efficacy experiment, mice were randomized into groups (n = 5–6) for a mean tumour size of 100–150 mm^3. […] Blood samples were collected on day 7 and 91. […] Tumour responses are reported with the measures of tumour volumes from the treatment start. […] Animals were randomized (n = 3) and tumour samples were collected at 0, 1, 4, 8 and 24 h on the first day and then collected 4 h after the last treatment on day 3, 8, 10, 14 (including a 24 h timepoint), 17 and 21. Tumours were excised, weighed, either frozen in liquid nitrogen and cryogenic dry pulverized with the CryoPrep system (model CP-02, Covaris) or processed to FFPE after fixation. […] On day 12, blood samples were collected for PK analysis. On the last day (3 h after the last treatment), tumours were excised, weighed, frozen in liquid nitrogen and cryogenic dry pulverized for PD analysis.

[3] = tested on: 23132/87 xenograft; assay: MSI xenograft model efficacy; assay type: in vivo, mouse; conditions: 23132/87, Gastric carcinoma; 60 or 120 mg/kg
Method: as §1

[4] = tested on: 2861-HX xenograft; assay: MSI xenograft model efficacy; assay type: in vivo, mouse; conditions: colorectal carcinoma, 60 or 120 mg/kg
Method: as §1

[5] = tested on: 3205-HX xenograft; assay: MSI xenograft model efficacy; assay type: in vivo, mouse; conditions: colorectal carcinoma, 60 or 120 mg/kg
Method: as §1

[6] = tested on: 5148-HX xenograft; assay: MSI xenograft model efficacy; assay type: in vivo, mouse; conditions: Gastric carcinoma, 60 or 120 mg/kg
Method: as §1

[7] = tested on: 5441-HX xenograft; assay: MSI xenograft model efficacy; assay type: in vivo, mouse; conditions: colorectal carcinoma, 60 or 120 mg/kg
Method: as §1

[8] = tested on: 5495-HX xenograft; assay: MSI xenograft model efficacy; assay type: in vivo, mouse; conditions: colorectal carcinoma, 60 or 120 mg/kg
Method: as §1

[9] = tested on: HCT116 TP53 null xenograft; assay: MSI xenograft model efficacy; assay type: in vivo, mouse; conditions: for Mean TVol / Tumour volume (TVol): HCT116 p53 null, 60 mpk; for Tumour volume (TVol): single mouse, 60 mg/kg
Method: as §1

[10] = tested on: HEC6 xenograft; assay: MSI xenograft model efficacy; assay type: in vivo, mouse; conditions: HEC6, Endometrial carcinoma; 60 or 120 mg/kg
Method: as §1

[11] = tested on: IGROV1 xenograft; assay: MSI xenograft model efficacy; assay type: in vivo, mouse; conditions: IGROV1, Ovarian carcinoma; 60 or 120 mg/kg
Method: as §1

[12] = tested on: IM95 xenograft; assay: MSI xenograft model efficacy; assay type: in vivo, mouse; conditions: IM95, Gastric carcinoma; 60 or 120 mg/kg
Method: as §1

[13] = tested on: Ishikawa xenograft; assay: MSI xenograft model efficacy; assay type: in vivo, mouse; conditions: Endometrial carcinoma, 60 or 120 mg/kg
Method: as §1

[14] = tested on: JHUEM2 xenograft; assay: MSI xenograft model efficacy; assay type: in vivo, mouse; conditions: JHUEM2, Endometrial carcinoma; 60 or 120 mg/kg
Method: as §1

[15] = tested on: LIM2405 xenograft; assay: MSI xenograft model efficacy; assay type: in vivo, mouse; conditions: LIM2405, colorectal carcinoma; 60 or 120 mg/kg
Method: as §1

[16] = tested on: LS411N xenograft; assay: MSI xenograft model efficacy; assay type: in vivo, mouse; conditions: colorectal carcinoma, 60 or 120 mg/kg
Method: as §1

[17] = tested on: LoVo xenograft; assay: MSI xenograft model efficacy; assay type: in vivo, mouse; conditions: colorectal carcinoma, 60 or 120 mg/kg
Method: as §1

[18] = tested on: OVK18 xenograft; assay: MSI xenograft model efficacy; assay type: in vivo, mouse; conditions: OVK18, Ovarian carcinoma; 60 or 120 mg/kg
Method: as §1

[19] = tested on: RKO xenograft; assay: MSI xenograft model efficacy; assay type: in vivo, mouse; conditions: colorectal carcinoma, 60 or 120 mg/kg
Method: as §1

[20] = tested on: RL95.2 xenograft; assay: MSI xenograft model efficacy; assay type: in vivo, mouse; conditions: RL95.2, Endometrial carcinoma; 60 or 120 mg/kg
Method: as §1

[21] = tested on: TOV21G xenograft; assay: MSI xenograft model efficacy; assay type: in vivo, mouse; conditions: Ovarian carcinoma, 60 or 120 mg/kg
Method: as §1

Molecule `CCc1c(N2CCN(C(=O)c3ncnc(C)c3O)CC2)c(=O)n2nc(C3=CCOCC3)nc2n1CC(=O)Nc1ccc(C(F)(F)F)cc1Cl` [HRO761] has a GI50 [1] of 25 nM, a Best average response [2] of -14 and a Best average response [3] of 200. For the same molecule, the Best average response [4] was -70, the Best average response [5] was 400 and the Best average response [6] was -36. For the same molecule, the Best average response [7] was 7, the Best average response [8] was -50 and the Best average response ([9]; HCT116 P53 null, colorectal carcinoma, 60 or 120 mg/kg) was -100. The “Mean TVol” value ([9]; day 0) was 151.89 mm3, the “Tumour volume (TVol)” value ([9]; day 0) was 114.28 mm3 and 172.75 mm3 and 98.96 mm3 and 162.60 mm3 and 112.69 mm3 and 250.04 mm3 and the “Mean TVol” value ([9]; day 3) was 243.48 mm3. For the same molecule, the “Tumour volume (TVol)” value ([9]; day 3) was 162.58 mm3 and 332.14 mm3 and 148.24 mm3 and 251.18 mm3 and 212.27 mm3 and 354.49 mm3, the “Mean TVol” value ([9]; day 7) was 201.27 mm3 and the “Tumour volume (TVol)” value ([9]; day 7) was 115.63 mm3 and 278.64 mm3 and 112.69 mm3 and 190.13 mm3. For the same molecule, the “Mean TVol” value ([9]; day 10) was 167.32 mm3, the “Mean TVol” value ([9]; day 14) was 78.55 mm3 and the “Tumour volume (TVol)” value ([9]; day 14) was 57.94 mm3 and 66.94 mm3 and 44.25 mm3 and 61.17 mm3 and 71.26 mm3 and 169.76 mm3. The “Mean TVol” value ([9]; day 17) was 56.92 mm3, the “Tumour volume (TVol)” value ([9]; day 17) was 38.70 mm3 and 22.79 mm3 and 27.88 mm3 and 45.55 mm3 and 49.32 mm3 and 157.29 mm3 and the “Mean TVol” value ([9]; day 21) was 29.14 mm3. For the same molecule, the “Tumour volume (TVol)” value ([9]; day 21) was 20.42 mm3 and 11.20 mm3 and 10.29 mm3 and 21.47 mm3 and 18.24 mm3 and 93.23 mm3, the “Mean TVol” value ([9]; day 24) was 15.47 mm3 and the “Tumour volume (TVol)” value ([9]; day 24) was 13.85 mm3 and 5.24 mm3 and 5.28 mm3 and 4.25 mm3 and 8.53 mm3 and 55.64 mm3. For the same molecule, the “Mean TVol” value ([9]; day 29) was 6.87 mm3, the “Tumour volume (TVol)” value ([9]; day 29) was 2.43 mm3 and 4.29 mm3 and 1.21 mm3 and 1.27 mm3 and 2.76 mm3 and 29.26 mm3 and the “Mean TVol” value ([9]; day 31) was 4.02 mm3. For the same molecule, the “Tumour volume (TVol)” value ([9]; day 31) was 2.71 mm3 and 2.05 mm3 and 0.39 mm3 and 0.99 mm3 and 0.92 mm3 and 17.07 mm3, the “Mean TVol” value ([9]; day 35) was 3.16 mm3 and the “Tumour volume (TVol)” value ([9]; day 35) was 1.81 mm3 and 0.00 mm3 (2×) and 0.17 mm3 and 0.75 mm3 and 16.24 mm3. The “Mean TVol” value ([9]; day 38) was 4.17 mm3, the “Tumour volume (TVol)” value ([9]; day 38) was 0.58 mm3 and 0.00 mm3 (3×) and 1.01 mm3 and 23.40 mm3 and the “Mean TVol” value ([9]; day 42) was 4.73 mm3. The “Tumour volume (TVol)” value ([9]; day 42) was 0.90 mm3 and 0.00 mm3 (4×) and 27.46 mm3, the “Mean TVol” value ([9]; day 45) was 6.85 mm3 and the “Tumour volume (TVol)” value ([9]; day 45) was 1.68 mm3 and 0.00 mm3 (4×) and 39.40 mm3. The “Mean TVol” value ([9]; day 49) was 7.67 mm3, the “Tumour volume (TVol)” value ([9]; day 49) was 0.00 mm3 (5×) and 46.01 mm3 and the “Mean TVol” value ([9]; day 53) was 9.89 mm3. The “Tumour volume (TVol)” value ([9]; day 53) was 0.00 mm3 (5×) and 59.36 mm3, the “Mean TVol” value ([9]; day 56) was 14.65 mm3 and the “Tumour volume (TVol)” value ([9]; day 56) was 0.00 mm3 (5×) and 87.90 mm3. The “Mean TVol” value ([9]; day 60) was 17.60 mm3, the “Tumour volume (TVol)” value ([9]; day 60) was 0.63 mm3 and 0.00 mm3 (4×) and 104.97 mm3 and the Best average response [10] was -75. The Best average response [11] was -38, the Best average response [12] was -90 and the Best average response [13] was -70. For the same molecule, the Best average response [14] was 400, the Best average response [15] was 44 and the Best average response [16] was -100. The Best average response [17] was -20, the Best average response [18] was 500 and the Best average response [19] was 300. It also gave a Best average response [20] of -66 and a Best average response [21] of 190.
